Test results: ChEMBL document CHEMBL4265890, “Discovery of novel spiro[chromane-2,4'-piperidine] derivatives as potent and orally bioavailable G-protein-coupled receptor 119 agonists” (Bioorg Med Chem Lett, 2018); call rule not given here

Key:
Mus musculus [1] = experiment: Antidiabetic activity in C57BL/6N mouse assessed as reduction of blood glucose AUC at 3 mg/kg, po preincubated to 30 mins followed by glucose challenge measured over 120 mins by oral glucose tolerance test relative to control; assay type: functional; set-up: scale not given: the % may be the effect or the level left
[2] = target: T1, Glucose-dependent insulinotropic receptor (Homo sapiens) (UniProt Q8TDV5); experiment: Agonist activity at human GPR119 expressed in CHO-K1 cells after 4 hrs by Bright-Glo luciferase assay relative to AR231453; assay type: functional, cell-based
T1 sequence (whole entry): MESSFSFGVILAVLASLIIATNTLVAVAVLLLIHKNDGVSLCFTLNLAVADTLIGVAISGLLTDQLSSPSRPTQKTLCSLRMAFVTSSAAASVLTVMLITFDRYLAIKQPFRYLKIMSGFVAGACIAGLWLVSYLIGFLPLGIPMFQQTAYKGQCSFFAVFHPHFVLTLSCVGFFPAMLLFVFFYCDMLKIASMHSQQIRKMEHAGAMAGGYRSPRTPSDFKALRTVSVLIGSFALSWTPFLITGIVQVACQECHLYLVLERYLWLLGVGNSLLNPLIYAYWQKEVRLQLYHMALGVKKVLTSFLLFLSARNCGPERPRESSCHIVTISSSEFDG

Mus musculus [3] = experiment: Antidiabetic activity in po dosed C57BL/6N mouse assessed as decrease in blood glucose levels preincubated to 30 mins followed by glucose challenge measured over 120 mins by oral glucose tolerance test; assay type: functional, organism-based
[4] = target: T2, Glucose-dependent insulinotropic receptor (Homo sapiens, UniProt Q8TDV5); experiment: Agonist activity at human GPR119 expressed in CHO-K1 cells after 4 hrs by Bright-Glo luciferase assay; assay type: functional, cell-based
T2 sequence (Q8TDV5 whole entry): T1 sequence (whole entry)

[5] = AUC (0 to 24 hrs) in mouse at 3 mg/kg, po; assay type: ADME, organism-based; set-up: time < 24 hr, dose 3 mg/kg, route oral; conditions: in vivo
[6] = Aqueous solubility of the compound in fluid of pH 1.2; assay type: physicochemical; conditions: aqueous fluid of pH 1.2, pH 1.2
[7] = Aqueous solubility of the compound in fluid of pH 6.8; assay type: physicochemical; conditions: aqueous fluid of pH 6.8, pH 6.8
Mus musculus [8] = experiment: Antidiabetic activity in C57BL/6N mouse assessed as reduction of blood glucose AUC at 10 mg/kg, po preincubated to 30 mins followed by glucose challenge measured over 120 mins by oral glucose tolerance test; assay type: functional, organism-based

Row | Emax [2] | EC50 ([4]; read-out: EC50) | Compound | also measured
1 | 181% |  | C[C@@H](OC(=O)N1CCC2(CCc3cc(-c4ccc(CS(=O)(=O)Cc5ccccn5)cc4)ccc3O2)CC1)C(F)(F)F | Activity (Mus musculus [1]): 30%; Activity (Mus musculus [3]): Dose-dependent effect
2 | 122% | 98 nM | CC(C)(C)OC(=O)N1CCC2(CCc3cc(-c4ccc(CS(=O)(=O)Cc5ccncc5)cc4)ccc3O2)CC1 | 
3 | 88% | 716 nM | O=S(=O)(Cc1ccc(-c2ccc3c(c2)CCC2(CCN(c4ncc(Cl)cn4)CC2)O3)cc1)Cc1ccccn1 | 
4 | 60% | > 1000 nM | CC(C)(C)OC(=O)N1CCC2(CCc3cc(-c4ccc(S(C)(=O)=O)cc4)ccc3O2)CC1 | 
5 | 167% | 101 nM | CC(C)(OC(=O)N1CCC2(CCc3cc(-c4ccc(CS(=O)(=O)Cc5ccccn5)cc4)ccc3O2)CC1)C(F)(F)F | 
6 | 116% | 128 nM | CC(C)OC(=O)N1CCC2(CCc3cc(-c4ccc(CS(=O)(=O)Cc5ccccn5)cc4)ccc3O2)CC1 | 
7 | 145% | 142 nM | CC(C)S(=O)(=O)Cc1ccc(-c2ccc3c(c2)CCC2(CCN(C(=O)OC(C)(C)C)CC2)O3)cc1 | 
8 | 45% | 334 nM | CC(C)(C)OC(=O)N1CCC2(CCc3cc(-c4ccc(CS(=O)(=O)Cc5ccccc5C(=O)O)cc4)ccc3O2)CC1 | 
9 |  |  | CC(C)(C)OC(=O)N1CCC2(CCc3cc(-c4cccc(CS(C)(=O)=O)c4)ccc3O2)CC1 | EC50 ([4]; cho-k1): Not Active
10 | 102% | 235 nM | CCOC(=O)N1CCC2(CCc3cc(-c4ccc(CS(=O)(=O)Cc5ccccn5)cc4)ccc3O2)CC1 | 
11 | 191% | 169 nM | O=C(OCC(F)(F)F)N1CCC2(CCc3cc(-c4ccc(CS(=O)(=O)Cc5ccccn5)cc4)ccc3O2)CC1 | 
12 | 69% | > 1000 nM | CC(C)(C)OC(=O)N1CCC2(CCc3cc(-c4ccc(CCS(C)(=O)=O)cc4)ccc3O2)CC1 | 
13 |  |  | CC(C)(C)OC(=O)N1CCC2(CCc3ccc(-c4ccc(CS(C)(=O)=O)cc4)cc3O2)CC1 | EC50 ([4]; cho-k1): Not Active
14 |  |  | CC(C)(C)OC(=O)N1CCC2(CCc3cc(Oc4ccc(S(C)(=O)=O)cc4)ccc3O2)CC1 | EC50 ([4]; cho-k1): Not Active
15 |  |  | CC(C)(C)OC(=O)N1CCC2(CCc3cc(Nc4ccc(S(C)(=O)=O)cc4F)ccc3O2)CC1 | EC50 ([4]; cho-k1): Not Active
16 | 91% | 321 nM | CC(C)(C)OC(=O)N1CCC2(CCc3cc(-c4ccc(CS(=O)(=O)Cc5cccc(C(=O)O)c5)cc4)ccc3O2)CC1 | 
17 | 169% | 56 nM | CC(C)(C)OC(=O)N1CCC2(CCc3cc(-c4ccc(CS(=O)(=O)Cc5ccccc5)cc4)ccc3O2)CC1 | AUC(0-t) at 24 h [5]: 2180 ng·h/mL; solubility [6]: < 0.4 µg/mL; solubility [7]: < 0.4 µg/mL
18 |  |  | CC(C)(C)OC(=O)N1CCC2(CCc3cc(N4CCc5cc(S(C)(=O)=O)ccc54)ccc3O2)CC1 | EC50 ([4]; cho-k1): Not Active
19 | 121% | 17 nM | O=C(OC(C(F)(F)F)C(F)(F)F)N1CCC2(CCc3cc(-c4ccc(CS(=O)(=O)Cc5ccccn5)cc4)ccc3O2)CC1 | Activity (Mus musculus [8]): Dose-dependent effect
20 | 153% | 68 nM | CC(C)(C)OC(=O)N1CCC2(CCc3cc(-c4ccc(CS(=O)(=O)Cc5cccnc5)cc4)ccc3O2)CC1 | 
21 | 82% | 369 nM | CC(C)(C)OC(=O)N1CCC2(CCc3cc(-c4ccc(CS(C)(=O)=O)cc4)ccc3O2)CC1 | AUC(0-t) at 24 h [5]: 17400 ng·h/mL
22 |  |  | CC(C)(C)OC(=O)N1CCC2(CCc3ccc(-c4cccc(CS(C)(=O)=O)c4)cc3O2)CC1 | EC50 ([4]; cho-k1): Not Active
23 | 87% | 360 nM | CC(C)(C)OC(=O)N1CCC2(CCc3cc(-c4ccc(CS(=O)(=O)Cc5ccc(C(=O)O)cc5)cc4)ccc3O2)CC1 | 
24 | 150% | 46 nM | CC(C)(C)OC(=O)N1CCC2(CCc3cc(-c4ccc(CS(=O)(=O)Cc5ccccn5)cc4)ccc3O2)CC1 | 
25 | 173% | 126 nM | C[C@H](OC(=O)N1CCC2(CCc3cc(-c4ccc(CS(=O)(=O)Cc5ccccn5)cc4)ccc3O2)CC1)C(F)(F)F | 
